From ChEMBL document CHEMBL1147621, “The discovery of biaryl acids and amides exhibiting antibacterial activity against Gram-positive bacteria” (2004)
Converted amounts (≈) assume the structure as drawn. The source made the active and inactive calls. The calls are words filed in the database; no cut-off is given here.

Key:
Enterococcus faecium [1] = test: Antibacterial activity against E. species. T66429; type: functional
Staphylococcus aureus [2] = test: Antibacterial activity against Staphylococcus aureus 8325; type: functional
Pseudomonas aeruginosa [3] = test: Antibacterial activity against Pseudomonas aeruginosa W30298; type: functional, organism-based
Pseudomonas aeruginosa [4] = test: Antibacterial activity against Pseudomonas aeruginosa W30279; type: functional, organism-based
Enterococcus faecium [5] = test: Antibacterial activity against Enterococcus faecium F24910; type: functional
Staphylococcus aureus [6] = test: Antibacterial activity of compound to inhibit the growth of Staphylococcus aureus 8325; type: functional
Escherichia coli = test: Antibacterial activity against Escherichia coli H28233; type: functional, organism-based
Staphylococcus aureus [7] = test: Antibacterial activity against Staphylococcus aureus W30078c; type: functional
Staphylococcus aureus [8] = test: Antibacterial activity against Staphylococcus aureus F2490; type: functional
[9] = tested on: Streptococcus sp. 'group A'; test: Antibacterial activity against Grp A Strep S54408; type: functional
[10] = tested on: Streptococcus sp. 'group A'; test: Antibacterial activity against Grp A Strep T32098; type: functional
Bacteria [11] = test: Antibacterial activity of compound to inhibit the growth of Gram-positive bacteria; type: functional
Bacteria [12] = test: Antibacterial activity of compound to inhibit the growth of Gram-positive bacteria; Range is 8-12 ug/mL; type: functional
Bacteria [13] = test: Antibacterial activity of compound to inhibit the growth of Gram-positive bacteria; Range is 5-11 ug/mL; type: functional

O=C(N[C@@H](CC1CCCCC1)C(=O)O)c1ccc(Cl)c(-c2ccc(Cl)cc2)c1
MIC (Enterococcus faecium [1]): 20 µg/mL (≈ 47.6 µM)
MIC (Staphylococcus aureus [2]): 20 µg/mL (≈ 47.6 µM)
MIC (Pseudomonas aeruginosa [3]): inactive
MIC (Pseudomonas aeruginosa [4]): inactive
MIC (Enterococcus faecium [5]): > 20 µg/mL
IC90 (Staphylococcus aureus [6]): 10 µg/mL (≈ 23.8 µM)
MIC (Escherichia coli): inactive
MIC (Staphylococcus aureus [7]): 20 µg/mL (≈ 47.6 µM)
MIC (Staphylococcus aureus [8]): 20 µg/mL (≈ 47.6 µM)
MIC [9]: 10 µg/mL (≈ 23.8 µM)
MIC [10]: 20 µg/mL (≈ 47.6 µM)

O=C(O)[C@@H]1CCCCN1C(=O)c1ccc(Cl)c(-c2ccc(-c3ccccc3)cc2)c1
IC90 (Bacteria [11]): 25 µg/mL (≈ 59.5 µM)

Cc1ccc(C(=O)N[C@@H](CC2CCCCC2)C(=O)O)cc1-c1ccc(-c2ccccc2)cc1
IC90 (Staphylococcus aureus [6]): 3 µg/mL (≈ 6.79 µM)

Cc1cc(C(=O)N[C@@H](CC2CCCCC2)C(=O)O)ccc1-c1ccc(-c2ccccc2)cc1
IC90 (Staphylococcus aureus [6]): 2 µg/mL (≈ 4.53 µM)

O=C(N[C@@H](CC1CCCCC1)C(=O)O)c1ccc(Cl)c(-c2cccc(Cl)c2)c1
MIC (Enterococcus faecium [1]): 20 µg/mL (≈ 47.6 µM)
MIC (Staphylococcus aureus [2]): 15 µg/mL (≈ 35.7 µM)
MIC (Pseudomonas aeruginosa [3]): inactive
MIC (Pseudomonas aeruginosa [4]): inactive
MIC (Enterococcus faecium [5]): 20 µg/mL (≈ 47.6 µM)
IC90 (Staphylococcus aureus [6]): 8 µg/mL (≈ 19 µM)
MIC (Escherichia coli): inactive
MIC (Staphylococcus aureus [7]): 20 µg/mL (≈ 47.6 µM)
MIC (Staphylococcus aureus [8]): 15 µg/mL (≈ 35.7 µM)
MIC [9]: 10 µg/mL (≈ 23.8 µM)
MIC [10]: 20 µg/mL (≈ 47.6 µM)

NC(=O)[C@H](CC1CCCCC1)NC(=O)c1ccc(Cl)c(-c2ccc(Cl)cc2)c1
IC90 (Bacteria [12]): 12 µg/mL (≈ 28.6 µM)

O=C(O)c1ccc(Cl)c(-c2ccc(Cl)cc2)c1
IC90 (Bacteria [11]): > 50 µg/mL

C[C@H](NC(=O)c1ccc(Cl)c(-c2ccc(Cl)cc2)c1)C(=O)O
IC90 (Bacteria [11]): > 50 µg/mL

O=C(N[C@H](CC1CCCCC1)C(=O)O)c1ccc(Cl)c(-c2ccc(Cl)cc2)c1
IC90 (Bacteria [13]): 11 µg/mL (≈ 26.2 µM)

NC(=O)c1ccc(Cl)c(-c2ccc(-c3ccccc3)cc2)c1
IC90 (Bacteria [11]): > 50 µg/mL

O=C(NC(C(=O)O)c1ccccc1)c1ccc(Cl)c(-c2ccc(-c3ccccc3)cc2)c1 (configuration not stated)
IC90 (Bacteria [11]): 10 µg/mL (≈ 22.6 µM)

O=C(N[C@@H](Cc1ccccc1)C(=O)O)c1ccc(Cl)c(-c2ccc(Cl)cc2)c1
IC90 (Bacteria [11]): > 50 µg/mL

O=C(N[C@@H](CC1CCNCC1)C(=O)O)c1ccc(Cl)c(-c2ccc(Cl)cc2)c1
IC90 (Bacteria [11]): > 50 µg/mL

O=C(N[C@@H](CC1CCCC1)C(=O)O)c1ccc(Cl)c(-c2ccc(Cl)cc2)c1
IC90 (Bacteria [11]): 18 µg/mL (≈ 44.3 µM)

NC(=O)c1ccc(Cl)c(-c2ccc(Cl)cc2)c1
IC90 (Bacteria [11]): > 50 µg/mL

COC(=O)[C@H](CC1CCCCC1)NC(=O)c1ccc(Cl)c(-c2ccc(Cl)cc2)c1
IC90 (Bacteria [11]): > 50 µg/mL

O=C(N[C@@H](CC1CCCCC1)C(=O)O)c1cccc(-c2ccc(-c3ccccc3)cc2)c1
MIC (Enterococcus faecium [1]): 20 µg/mL (≈ 46.8 µM)
MIC (Staphylococcus aureus [2]): 20 µg/mL (≈ 46.8 µM)
MIC (Pseudomonas aeruginosa [3]): inactive
MIC (Pseudomonas aeruginosa [4]): inactive
MIC (Enterococcus faecium [5]): 20 µg/mL (≈ 46.8 µM)
IC90 (Staphylococcus aureus [6]): 4 µg/mL (≈ 9.36 µM)
MIC (Escherichia coli): inactive
MIC (Staphylococcus aureus [7]): 20 µg/mL (≈ 46.8 µM)
MIC (Staphylococcus aureus [8]): 20 µg/mL (≈ 46.8 µM)
MIC [9]: 10 µg/mL (≈ 23.4 µM)
MIC [10]: 20 µg/mL (≈ 46.8 µM)
